Patent publication US20110275703A1, “SUBSTITUTED SPIROKETAL DERIVATIVES AND USE THEREOF AS THERAPEUTIC DRUG FOR DIABETES” (CHUGAI SEIYAKU KABUSHIKI KAISHA, priority 2007, published 2011)
Like-named read-outs stand apart in the source and are kept apart here.

Biological target: T1, human SGLT2 (Homo sapiens, UniProt P31639)
T1 construct: expressed in transfected cells; host or cells: CHO-K1
T1 sequence (P31639 1-672): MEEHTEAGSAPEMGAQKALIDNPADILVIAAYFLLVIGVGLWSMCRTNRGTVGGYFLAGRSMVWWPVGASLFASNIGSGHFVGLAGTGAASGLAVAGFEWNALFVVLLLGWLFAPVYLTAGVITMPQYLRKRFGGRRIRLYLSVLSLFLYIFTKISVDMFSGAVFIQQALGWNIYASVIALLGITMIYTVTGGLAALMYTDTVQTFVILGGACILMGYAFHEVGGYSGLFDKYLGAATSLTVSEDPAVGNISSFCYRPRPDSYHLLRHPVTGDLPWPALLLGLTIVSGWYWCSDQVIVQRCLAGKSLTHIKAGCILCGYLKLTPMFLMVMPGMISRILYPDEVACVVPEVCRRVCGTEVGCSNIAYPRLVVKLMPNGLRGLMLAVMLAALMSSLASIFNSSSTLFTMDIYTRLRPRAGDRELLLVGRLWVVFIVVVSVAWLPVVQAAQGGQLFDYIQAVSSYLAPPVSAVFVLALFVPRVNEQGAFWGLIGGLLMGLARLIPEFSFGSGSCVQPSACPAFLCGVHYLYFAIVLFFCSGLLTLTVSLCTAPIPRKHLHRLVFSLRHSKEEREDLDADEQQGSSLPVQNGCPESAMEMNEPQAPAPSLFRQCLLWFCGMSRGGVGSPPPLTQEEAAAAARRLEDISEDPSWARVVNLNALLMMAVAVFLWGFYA
Assay: Inhibitory activity against methyl-α-D-glucopyranoside uptake, CHO cells stably expressing human SGLT2
Format: cell-based
Settings: for hSGLT2 selectivity: matches hSGLT1 IC50 / hSGLT2 IC50 (formula not stated)
In short: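 CHO-K1 cells stably expressing human SGLT2 were pre-incubated in sodium-free choline buffer (pH 7.4), then exposed 45 min at 37°C to test compound in sodium buffer containing 1 mM [14C]methyl-α-D-glucopyranoside. Sodium-free buffer gave baseline uptake. After washing, cells were lysed with NaOH/SDS.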

[1] = Table 2-2, read-out: hhSGLT2 IC50 value
[2] = inhibition of SGLT2, Table 2-1, read-out: IC50 value

Row | IC50 [1] | hSGLT2 selectivity | IC50 [2] | SMILES
1 | 1.6 nM | 83 |  | CCc1ccc(Cc2cc3c(cc2C)CO[C@]32O[C@H](CO)[C@@H](O)[C@H](O)[C@H]2O)cc1 [Comparative Compound 1, 1,1-anhydro-1-C-[5-(4-ethylphenyl)methyl-2-(hydroxymethyl)-4-methylphenyl]-β-glucopyranose, reference compound]
2 | 1.3 nM | 155 | 1.3 nM | CCc1ccc(Cc2cc3c(cc2Cl)CO[C@]32O[C@H](CO)[C@@H](O)[C@H](O)[C@H]2O)cc1 [Example 1, (1S,3′R,4′S,5′S,6′R)-5-chloro-6-[(4-ethylphenyl)methyl]-3′,4′,5′,6′-tetrahydro-6′-(hydroxymethyl)-spiro[isobenzofuran-1(3H),2′-[2H]pyran]-3′,4′,5′-triol]
3 | 1.5 nM | 283 | 1.5 nM | CCOc1ccc(Cc2cc3c(cc2Cl)CO[C@]32O[C@H](CO)[C@@H](O)[C@H](O)[C@H]2O)cc1 [Example 5, (1S,3′R,4′S,5′S,6′R)-5-chloro-6-[(4-ethoxyphenyl)methyl]-3′,4′,5′,6′-tetrahydro-6′-(hydroxymethyl)-spiro[isobenzofuran-1(3H),2′-[2H]pyran]-3′,4′,5′-triol]
4 | 1.7 nM | 224 | 1.7 nM | OC[C@H]1O[C@]2(OCc3cc(Cl)c(Cc4ccc5ccccc5c4)cc32)[C@H](O)[C@@H](O)[C@@H]1O [Example 7, (1S,3′R,4′S,5′S,6′R)-5-chloro-3′,4′,5′,6′-tetrahydro-6′-(hydroxymethyl)-6-(2-naphthylmethyl)-spiro[isobenzofuran-1(3H),2′-[2H]pyran]-3′,4′,5′-triol]
5 | 1.1 nM | 323 | 1.1 nM | OC[C@H]1O[C@]2(OCc3cc(Cl)c(Cc4ccc(CCF)cc4)cc32)[C@H](O)[C@@H](O)[C@@H]1O [Example 8, (1S,3′R,4′S,5′S,6′R)-5-chloro-6-[(4-(2-fluoroethyl)phenyl)methyl]-3′,4′,5′,6′-tetrahydro-6′-(hydroxymethyl)-spiro[isobenzofuran-1(3H),2′-[2H]pyran]-3′,4′,5′-triol]
6 | 2.3 nM | 590 | 2.3 nM | CCCc1ccc(Cc2cc3c(cc2Cl)CO[C@]32O[C@H](CO)[C@@H](O)[C@H](O)[C@H]2O)cc1 [Example 9, (1S,3′R,4′S,5′S,6′R)-5-chloro-3′,4′,5′,6′-tetrahydro-6′-(hydroxymethyl)-6-[(4-propylphenyl)methyl]-spiro[isobenzofuran-1(3H),2′-[2H]pyran]-3′,4′,5′-triol]
7 | 1.7 nM | 596 | 1.7 nM | CC(C)c1ccc(Cc2cc3c(cc2Cl)CO[C@]32O[C@H](CO)[C@@H](O)[C@H](O)[C@H]2O)cc1 [Example 15, (1S,3′R,4′S,5′S,6′R)-5-chloro-3′,4′,5′,6′-tetrahydro-6′-(hydroxymethyl)-6-[(4-isopropylphenyl)methyl]-spiro[isobenzofuran-1(3H),2′-[2H]pyran]-3′,4′,5′-triol]
8 | 2 nM | 341 | 2.1 nM | Cc1cc2c(cc1Cc1ccc(C(C)C)cc1)[C@]1(OC2)O[C@H](CO)[C@@H](O)[C@H](O)[C@H]1O [Example 21, (1S,3′R,4′S,5′S,6′R)-3′,4′,5′,6′-tetrahydro-6′-(hydroxymethyl)-6-[(4-isopropylphenyl)methyl]-5-methyl-spiro[isobenzofuran-1(3H),2′-[2H]pyran]-3′,4′,5′-triol]
